Measured values: patent publication US12616669B2, “Methods and chemical compositions for treating skin conditions by providing long lasting skin pH control for improving skin barrier function” (Soteri Skin, Inc., priority 2021, dated 2026)
Read-outs that look alike come from different tables or passages of the source.

What was measured:
[1] = in vivo
[2] = cited from earlier work
[3] = Evaluation of various buffering systems on human skin; conditions: sensitive, healthy or eczema affected skin

O=C(O)CC(O)(CC(=O)O)C(=O)O [Citric acid]
skin irritation / tolerability [1]: well tolerated on healthy and eczema affected skin

O=C(O)[C@H](O)[C@@H](O)[C@H](O)[C@H](O)CO [Gluconic acid]
skin irritation / tolerability [1]: well tolerated on healthy and eczema affected skin

N[C@@H](CC(=O)O)C(=O)O [aspartic acid]
pKa [2]: around 3.65

O=C(O)CO [glycolic acid]
skin irritation / tolerability [3]: may be irritating for sensitive skin

CC(O)C(=O)O (centres unmarked) [lactic acid]
skin irritation / tolerability [1]: may be irritating for sensitive skin
